From US7803801B2, “Aminopyridine compounds having Syk inhibitory activity” (Japan Tobacco, Inc., priority 2005, dated 2010)
Counter-ions that a name gives are not always drawn.

Assays:
[1] = molecular target: GST-Syk Full Protein (human) (Homo sapiens, UniProt P43405); experiment: Syk kinase inhibition test (HTRF method); assay type: biochemical; details: Tables 1-x, compounds A; read-out: sykHTRF ave IC50
Procedure, shortened: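 HTRF read-out: after EDTA termination and 1 h with XL665-streptavidin and Eu-anti-phosphotyrosine, the 665/620 nm ratio was measured. The reaction ran 30 min at 20–25 °C with final 6.4 nM human GST-Syk, 250 nM biotinylated peptide, 100 μM ATP, pH 7.0 HEPES buffer, 2% DMSO.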

[2] = tested on: cultured human mast cells; experiment: Degranulation inhibition test using cultured human mast cells (IgE cross-linking, β-Hexosaminidase release); assay type: cell-based; details: Mast cell; Tables 1-x, compounds A; cultured human mast cells; read-out: human degranulation ave. IC50
Procedure, shortened: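 Degranulation was triggered by anti-hIgE (10 μg/mL final, 30 min, 37 °C) after a 10-min compound pretreatment (DMSO 0.1%) of cord-blood CD34+-derived mast cells primed 5 days with IL-4 and IgE. β-Hexosaminidase in supernatant was measured with p-nitrophenyl-GlcNAc substrate (A405), expressed against water-lysed total; IC50 (M).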

| Structure (SMILES) | IC50 [1] [nM] | IC50 [2] [nM] |
| --- | --- | --- |
| Cc1ccnc(Nc2cccc(-c3cnc(N4CCC(NC(=O)CO)CC4)s3)n2)c1 [Compound A-482, 2-hydroxy-N-(1-{5-[6-(4-methylpyridin-2-ylamino)pyridin-2-yl]thiazol-2-yl}piperidin-4-yl)acetamide] | < 100 | 100 to 1000 |
| Cc1ccnc(Nc2cccc(-c3cnc(N4CCC(CNC(=O)CO)CC4)s3)n2)c1 [Compound A-486, 2-hydroxy-N-(1-{5-[6-(4-methylpyridin-2-ylamino)pyridin-2-yl]thiazol-2-yl}piperidin-4-ylmethyl)acetamide] | < 100 | 100 to 1000 |
| CC(=O)NCC1CCN(c2ncc(-c3cccc(Nc4cc(C)ccn4)n3)s2)CC1 [Compound A-487, N-(1-{5-[6-(4-methylpyridin-2-ylamino)pyridin-2-yl]thiazol-2-yl}piperidin-4-ylmethyl)acetamide] | < 100 | 100 to 1000 |
| CNC(=O)[C@@H]1CCCN1c1ncc(-c2cccc(Nc3cc(C)ccn3)n2)s1 [Compound A-488, N-methyl-(S)-1-{5-[6-(4-methylpyridin-2-ylamino)pyridin-2-yl]thiazol-2-yl}pyrrolidine-2-carboxamide dihydrochloride] | < 100 | 100 to 1000 |
| Cc1ccnc(Nc2cccc(-c3cnc(N4CC[C@@H](NS(C)(=O)=O)C4)s3)n2)c1 [Compound A-489, N—((R)-1-{5-[6-(4-methylpyridin-2-ylamino)pyridin-2-yl]thiazol-2-yl}pyrrolidin-3-yl)methanesulfonamide] | < 100 | 100 to 1000 |
| Cc1ccnc(Nc2cccc(-c3cnc(N4CCCC(COCC(=O)O)C4)s3)n2)c1 (centres unmarked) [Compound A-497, (1-{5-[6-(4-methylpyridin-2-ylamino)pyridin-2-yl]thiazol-2-yl}piperidin-3-ylmethoxy)acetic acid dihydrochloride] | < 100 | > 1000 |
| Cc1ccnc(Nc2cccc(-c3cnc(N4CCCC(CO)C4)s3)n2)c1 (centres unmarked) [Compound A-498, (1-{5-[6-(4-methylpyridin-2-ylamino)pyridin-2-yl]thiazol-2-yl}piperidin-3-yl)methanol] | < 100 | 100 to 1000 |
| Cc1ccnc(Nc2cccc(-c3cnc(N4CCCC(COCC(N)=O)C4)s3)n2)c1 (centres unmarked) [Compound A-499, 2-(1-{5-[6-(4-methylpyridin-2-ylamino)pyridin-2-yl]thiazol-2-yl}piperidin-3-ylmethoxy)acetamide] | < 100 | 100 to 1000 |
| Cc1ccnc(Nc2cccc(-c3cnc(N4CCC(C)(C(N)=O)CC4)s3)n2)c1 [Compound A-500, 4-methyl-1-{5-[6-(4-methylpyridin-2-ylamino)pyridin-2-yl]thiazol-2-yl}piperidine-4-carboxamide] | < 100 | 100 to 1000 |
| CNC(=O)COCC1CCCN(c2ncc(-c3cccc(Nc4cc(C)ccn4)n3)s2)C1 (centres unmarked) [Compound A-502, N-methyl-2-(1-{5-[6-(4-methylpyridin-2-ylamino)pyridin-2-yl]thiazol-2-yl}piperidin-3-ylmethoxy)acetamide] | < 100 | 100 to 1000 |
| Cc1ccnc(Nc2cccc(-c3cnc(N4CCC(C)(C(=O)NCCO)CC4)s3)n2)c1 [Compound A-503, N-(2-hydroxyethyl)-4-methyl-1-{5-[6-(4-methylpyridin-2-ylamino)pyridin-2-yl]thiazol-2-yl}-piperidine-4-carboxamide] | < 100 | 100 to 1000 |
| Cc1ccnc(Nc2cccc(-c3cnc(N4CCC(CC(N)=O)CC4)s3)n2)c1 [Compound A-504, 2-(1-{5-[6-(4-methylpyridin-2-ylamino)pyridin-2-yl]thiazol-2-yl}piperidin-4-yl)acetamide] | < 100 | 100 to 1000 |
| CNC(=O)CC1CCN(c2ncc(-c3cccc(Nc4cc(C)ccn4)n3)s2)CC1 [Compound A-505, N-methyl-2-(1-{5-[6-(4-methylpyridin-2-ylamino)pyridin-2-yl]thiazol-2-yl}piperidin-4-yl)acetamide] | < 100 | 100 to 1000 |
| Cc1ccnc(Nc2cccc(-c3cnc(N4CCC(CC(=O)NCCO)CC4)s3)n2)c1 [Compound A-506, N-(2-hydroxyethyl)-2-(1-{5-[6-(4-methylpyridin-2-ylamino)pyridin-2-yl]thiazol-2-yl}piperidin-4-yl)acetamide] | < 100 | 100 to 1000 |
| Cc1ccnc(Nc2cccc(-c3cnc(N(C)CCNC(=O)CO)s3)n2)c1 [Compound A-509, 2-hydroxy-N-[2-(N′-methyl-{5-[6-(4-methylpyridin-2-ylamino)pyridin-2-yl]thiazol-2-yl}amino)ethyl]acetamide] | < 100 | 100 to 1000 |
| CC(=O)N1CCC(Nc2ncc(-c3cccc(Nc4cc(C)ccn4)n3)s2)CC1 [Compound A-514, 1-(4-{5-[6-(4-methylpyridin-2-ylamino)pyridin-2-yl]thiazol-2-ylamino}piperidin-1-yl)ethanone] | < 100 | 100 to 1000 |
| CNC(=O)CO[C@@H]1CCN(c2ncc(-c3cccc(Nc4cc(C)ccn4)n3)s2)C1 [Compound A-516, N-methyl-2-((R)-1-{5-[6-(4-methylpyridin-2-ylamino)pyridin-2-yl]thiazol-2-yl}pyrrolidin-3-yloxy)acetamide] | < 100 | 100 to 1000 |
| NC(=O)C1CCN(c2ncc(-c3cccc(Nc4cc(Cl)ccn4)n3)s2)CC1 [Compound A-518, 1-{5-[6-(4-chloropyridin-2-ylamino)pyridin-2-yl]thiazol-2-yl}piperidine-4-carboxamide] | < 100 | < 100 |
| COCCN(C)c1ncc(-c2cccc(Nc3cc(C)ccn3)n2)s1 [Compound A-520, N-(2-methoxyethyl)-N-methyl-N-{5-[6-(4-methylpyridin-2-ylamino)pyridin-2-yl]thiazol-2-yl}amine] | < 100 | 100 to 1000 |
| CC(=O)N1CCC(N(CCNS(C)(=O)=O)c2ncc(-c3cccc(Nc4cc(C)ccn4)n3)s2)CC1 [Compound A-524, N-[2-(N′-(1-acetylpiperidin-4-yl)-N′-{5-[6-(4-methylpyridin-2-ylamino)pyridin-2-yl]thiazol-2-yl}amino)ethyl]methanesulfonamide] | < 100 | > 1000 |
| Cc1ccnc(Nc2cccc(-c3cnc(N4CCC[C@H]4C(N)=O)s3)n2)c1 [Compound A-528, (S)-1-{5-[6-(4-methylpyridin-2-ylamino)pyridin-2-yl]thiazol-2-yl}pyrrolidine-2-carboxamide] | < 100 | < 100 |

Now from value to molecule:

| IC50 [1] [nM] | IC50 [2] [nM] | Structure (SMILES) |
| --- | --- | --- |
| < 100 | 100 to 1000 | Cc1ccnc(Nc2cccc(-c3cnc(N4CCC(N(C)C(=O)CO)CC4)s3)n2)c1 [Compound A-483, 2-hydroxy-N-methyl-N-(1-{5-[6-(4-methylpyridin-2-ylamino)pyridin-2-yl]thiazol-2-yl}piperidin-4-yl)acetamide] |
| < 100 | 100 to 1000 | CO[C@@H]1CCN(c2ncc(-c3cccc(Nc4cc(C)ccn4)n3)s2)C1 [Compound A-490, N-{6-[2-((R)-3-methoxypyrrolidin-1-yl)thiazol-5-yl]pyridin-2-yl}-N-(4-methylpyridin-2-yl)amine] |
| < 100 | 100 to 1000 | CNC(=O)C1(C)CCN(c2ncc(-c3cccc(Nc4cc(C)ccn4)n3)s2)CC1 [Compound A-501, N-methyl-4-methyl-1-{5-[6-(4-methylpyridin-2-ylamino)pyridin-2-yl]thiazol-2-yl}piperidine-4-carboxamide] |
| < 100 | 100 to 1000 | CC(=O)NCCN(C)c1ncc(-c2cccc(Nc3cc(C)ccn3)n2)s1 [Compound A-508, N-[2-(N′-methyl-N′-{5-[6-(4-methylpyridin-2-ylamino)pyridin-2-yl]thiazol-2-yl}amino)ethyl]acetamide] |
| < 100 | 100 to 1000 | Cc1ccnc(Nc2cccc(-c3cnc(N(C)C4CCN(C(=O)c5ccc(O)cc5)CC4)s3)n2)c1 [Compound A-513, (4-hydroxyphenyl)-[4-(N-methyl-N-{5-[6-(4-methylpyridin-2-ylamino)pyridin-2-yl]thiazol-2-yl}amino)piperidin-1-yl]methanone] |
| < 100 | > 1000 | CC(=O)N1CCC(N(c2ncc(-c3cccc(Nc4cc(C)ccn4)n3)s2)C(C)C)CC1 [Compound A-515, 1-[4-(N-isopropyl-N-{5-[6-(4-methylpyridin-2-ylamino)pyridin-2-yl]thiazol-2-yl}amino)piperidin-1-yl]ethanone] |
| < 100 | 100 to 1000 | COc1ccnc(Nc2cccc(-c3cnc(N4CCC(C(N)=O)CC4)s3)n2)c1 [Compound A-517, 1-{5-[6-(4-methoxypyridin-2-ylamino)pyridin-2-yl]thiazol-2-yl}piperidine-4-carboxamide] |
| < 100 | < 100 | Cc1ccnc(Nc2cccc(-c3cnc(N(C)CCO)s3)n2)c1 [Compound A-519, 2-(N-methyl-N-{5-[6-(4-methylpyridin-2-ylamino)pyridin-2-yl]thiazol-2-yl}amino)ethanol] |
| < 100 | 100 to 1000 | CC(=O)N1CCC(N(CCO)c2ncc(-c3cccc(Nc4cc(C)ccn4)n3)s2)CC1 [Compound A-525, 1-[4-(N-(2-hydroxyethyl)-N-{5-[6-(4-methylpyridin-2-ylamino)pyridin-2-yl]thiazol-2-yl}amino)piperidin-1-yl]ethanone] |
| < 100 | 100 to 1000 | COCCN(c1ncc(-c2cccc(Nc3cc(C)ccn3)n2)s1)C1CCN(C(C)=O)CC1 [Compound A-526, 1-[4-(N-(2-methoxyethyl)-N-{5-[6-(4-methylpyridin-2-ylamino)pyridin-2-yl]thiazol-2-yl}amino)piperidin-1-yl]ethanone] |
